Reference: ChEMBL document CHEMBL3045190, “Atomic and molecular parameters-based comparative QSAR study on tetrahydroimidazodiazepinone derivatives” (Med Chem Res, 2012)

These molecules were tested against Human immunodeficiency virus type 1 reverse transcriptase (Human immunodeficiency virus 1, UniProt Q72547) (assay: Binding affinity to Human immunodeficiency virus 1 reverse transcriptase).

pEC50	SMILES
5.66	CC1Cn2c(S)nc3cc(Cl)cc(c32)CN1CCC1CC1 (centres undefined)
6.1	CC(C)=CCN1Cc2cc(C)cc3[nH]c(=S)n(c23)CC1C (centres undefined)
6.35	C=C(C)CN1Cc2cc(Cl)cc3[nH]c(=S)n(c23)CC1C (centres undefined)
8.29	CCC(=CCN1Cc2c(Cl)ccc3[nH]c(=S)n(c23)CC1C)CC (centres undefined)
7.6	CC(C)=CCN1Cc2cc(Cl)c(Cl)c3nc(S)n(c23)C[C@@H]1C
7.37	CC1Cn2c(S)nc3cc(Cl)cc(c32)CN1CC1CCC1 (centres undefined)
7.85	CC(C)=CCN1Cc2c(C)ccc3nc(S)n(c23)C[C@@H]1C
4.85	C=C(C)CN1Cc2cccc3[nH]c(=O)n(c23)CC1C (centres undefined)
7.36	CC(C)=CCN1Cc2cccc3[nH]c(=S)n(c23)CC1C (centres undefined)
6.62	CCCN1Cc2cccc3[nH]c(=S)n(c23)CC1C (centres undefined)
7.6	CC(C)=CCN1Cc2cc(Cl)cc3nc(O)n(c23)CC1C (centres undefined)

The next lines start with the molecule.

SMILES	pEC50
CCC(=CCN1Cc2cc(Cl)cc3nc(S)n(c23)CC1C)CC (centres undefined)	7.82
C=C(C)CN1Cc2cc(Cl)cc3[nH]c(=O)n(c23)CC1C (centres undefined)	5.33
C=CCN1Cc2cccc3[nH]c(=O)n(c23)CC1C (centres undefined)	4.23
CC(C)=CCN1Cc2c(Br)ccc3nc(S)n(c23)C[C@@H]1C	8.52
CCC(=CCN1Cc2cc(C)cc3nc(O)n(c23)C[C@@H]1C)CC	6.51
CC(C)=CCN1Cc2cccc3nc(O)n(c23)CC1C (centres undefined)	5.38
CC(C)=CCN1Cc2cc(Cl)cc3nc(S)n(c23)CC1C (centres undefined) [TIBO]	7.04
CC(C)=CCN1Cc2c(Cl)ccc3[nH]c(=S)n(c23)C[C@@H]1C [TIVIRAPINE]	8.34
